From US10010569B2, “Seaweed extracts, unsaturated fatty acids, and methods of treatment” (priority 2012, dated 2018)
Several values for one entry are separate records, joined by “and”; a condition that tells them apart may be missing. Identical values can stand only once. Values belong to the molecule of their own block, whether it stands above or below them.

Columns and labels:
Type in all cases: cell-based, human
NQO1 [1] = assay: Kinase inhibitor pre-treatment and NQO1 immunoblot; conditions: 10 μg/ml, 24 h, 30 min pre-treatment with PD98059 50 μM
Procedure: (§1) IMR-32 cells (800,000 cells/well) were seeded into each well of 6-well plates. 24 h later, cells were treated with solvent control (EtOH, 0.5%, v/v) or fractions/compounds. After another 24 h, whole cell lysates were collected in PhosphoSafe buffer (Novagen) following the manufacturer's protocol and stored at −80° C. until analyzed. For each sample, the protein concentration was measured using a BCA assay kit (Pierce). Samples containing equal amount of total protein were separated by SDS-PAGE (NuPAGE® Novex® 4-12% Bis-Tris Mini gels, Invitrogen), transferred onto a PVDF membrane, and incubated overnight with the indicated primary antibodies at 4° C. on an orbital shaker. The membranes were then incubated with the corresponding secondary antibodies (HRP-linked) for 1 h at room temperature and detected with Supersignal Femto Western Blotting kit (Pierce). Anti-NQO1 (mouse) antibody was from Abcam; anti-β-actin (rabbit), anti-mouse-HRP, and anti-rabbit-HRP antibodies were from Cell Signaling Technology.
For assays in the presence of an antioxidant, the cells were pretreated with excess NAC (1 mM, pH 7.50) for 2 h before they were treated with solvent control or the compounds (see above). […]

NQO1 [2] = assay: NQO1 mRNA levels by qPCR in IMR-32 cells; conditions: 1 μg/ml, 12 h
Procedure: (§2) Cultured cells were treated in the same way as described for the immunoblot experiments. After 12 h, total RNA was extracted using a commercial kit (RNeasy Mini Kit, Qiagen). For mice tissues, total RNA was extracted using TRIzol® reagent (Invitrogen) following the standard manufacturer's protocol.
(§3) cDNA synthesis and qPCR experiments for both cultured cells and mice tissues were performed following the same procedure. 2 μg of each RNA sample was reverse-transcribed into cDNA, which served as a template for TagMan® gene expression assays (Applied Biosystems). For each qPCR run, a total reaction volume of 25 μl was prepared consisting of 12.5 μl of TaqMan 2× universal master mix, 1.25 μl of a 20× TaqMan gene expression assay probe, 1 μl of cDNA and 10.25 μl of RNase-free sterile water. The reactions were dispensed into 96-well optical reaction plates (Applied Biosystems) and detected in an Applied Biosystems® 7300 Real-Time PCR System. The thermocycler program consisted of 2 min at 50° C., 10 min at 95° C., and 40 cycles of 95° C. for 15 s and 60° C. for 1 min. For normalization, GAPDH expression was used as an internal control for human cells (IMR-32) and β-actin for mice tissue samples.

ARE = assay: ARE-luc reporter assay; conditions: IMR-32 cells
Procedure: IMR-32 cells (33,000 cells/well) were transiently transfected with ARE-luc plasmid (100 ng/well) using FuGENE® HD (Roche Diagnostics) as a transfection reagent (1:3, w/v). The cells were dispensed into each well of a 96-well plate and incubated for 24 h. They were then treated with solvent control (DMSO or EtOH, 1%, v/v) or individual extracts/fractions/compounds for 24 h before ARE activities were detected by using BriteLite detection reagent (PerkinElmer). Relative fold activation for the treated samples over solvent control was reported. The ARE-luciferase (ARE-luc) reporter contains the ARE sequence of human NQO1: 5′-[…]-3′ [Moehlenkamp, J. D.; Johnson, J. A. Activation of antioxidant/electrophile-responsive elements in IMR-32 human neuroblastoma cells. Arch Biochem Biophys. 363:98-106; 1999].

NQO1 [3] = assay: RNA interference (NRF2 siRNA) and NQO1 immunoblot; conditions: IMR-32 cells, NRF2 siRNA 48 h, then 24 h treatment
Procedure: as §1
IMR-32 cells (600,000 cells/well) were seeded in 6-well plates and incubated at 37° C. for 24 h. […] The treated cells were then lysed in PhosphoSafe buffer and whole cell lysates analyzed by immunoblot (see above). […]

NQO1 [4] = assay: NQO1 protein expression by immunoblot in IMR-32 cells; conditions: 24 h
Procedure: as §1

NRF2 = NRF2 mRNA levels by qPCR in IMR-32 cells; conditions: 1-10 μg/ml, 12 h
Procedure: as §2, §3

glutathione = assay: Glutathione assay in IMR-32 cells
Procedure: Glutathione assays were performed following the manufacturer's protocol (Sigma). Briefly, IMR-32 cells (800,000 cells/well) were seeded into 6-well plates and incubated at 37° C. The cells were then treated with solvent control (EtOH, 0.5%, v/v) or compound 1 for the indicated period of time. At the end of each treatment, the cells were washed twice with Dulbecco's phosphate buffered saline (DPBS), harvested in 200 μl of DPBS, and pelleted at 600×g for 10 min at 4° C. After removal of DPBS, the cell pellet was deproteinized and re-suspended in 3 volumes of 5% sulfosalicylic acid solution (v/v). The suspension was frozen (liquid N2) and thawed (37° C. water bath) twice and then incubated at 4° C. for 5 min. The cell debris was spun down at 10,000×g for 10 min at 4° C. The supernatant was transferred to fresh tubes and used as glutathione stock. The concentration of the total glutathione (GSH+GSSG) was measured and compared with a standard curve of reduced glutathione (GSH).

[5] = 10 μg/ml, 24 h, over solvent control
[6] = 32 μg/ml, 24 h, over solvent control

- NQO1 expression in the presence of a MAPK (MEK1) inhibitor (NQO1 [1]): induced
Structure (SMILES): CCCCCCCCCC(=O)/C=C/CCCCCC(=O)O [Compound 1, 7(E)-9-keto-octadec-7-enoic acid]
- NQO1 mRNA level (NQO1 [2]): 1.5 fold
- ARE activation (ARE; [5]): 17.6 fold
- NQO1 expression in NRF2-depleted cells (NQO1 [3]): virtually undetectable
- NQO1 protein expression (NQO1 [4]): detectable starting at 1 μg/ml and was the highest at 10 μg/ml
- NRF2 mRNA levels (NRF2): remained unchanged
- glutathione level restored relative to basal level (glutathione; at 16 h): more than 50%
- transient decrease of glutathione level (glutathione; until 8 h): < 30% and ~30%
- glutathione level versus baseline (glutathione; up to 24 h): stayed above baseline

Structure (SMILES): CCCCCCCC(=O)/C=C/CCCCCC(=O)O [Compound 2, 7(E)-9-keto-hexadec-7-enoic acid]
- ARE activation (ARE; [5]): 2.8 fold
- ARE activation (ARE; [6]): 30.3 fold

Structure (SMILES): CCCCCCCCCC(=O)/C=C/CCCCCC(N)=O [Compound 3, 7(E)-9-keto-octadec-7-enamide]
- ARE activation (ARE; [5]): 4.5 fold
- ARE activation (ARE; [6]): 13.2 fold

Structure (SMILES): CC(C)(C)c1cc(O)ccc1O [tBHQ, reference compound]
- ARE activation (ARE; positive control, concentration not given): 14.9 fold
